Consider 3 molecules from patent US20100189683A1, “Pulsatile Dosing of Gossypol for Treatment of Disease” (Ascenta Therapeutics, Inc., priority 2008, published 2010).

In data set [1] the test system is A549 NSCLC xenograph model. Briefly: In vivo efficacy in the A549 NSCLC xenograft model. Details: species or system nude mice. The following applies: intermittent dosing 60 mg/kg po days 1-3 and 15-17, in combination with taxotere 30 mg/kg iv single dose. As for the experimental part:
The in vivo efficacy of (−)-gossypol acetic acid co-crystals alone or in combination with taxotere (TXT) in the A549 NSCLC xenograph model is shown in FIGS. 2 and 3. About 5 million cells of A549 were inoculated into nude mice, 8 mice per dosing group. In one experiment, (−)-gossypol acetic acid co-crystals were administered at 15 mg/kg, oral dosing (po), daily for 21 days, either alone or in combination with taxotere at 8 mg/kg, iv, once a week for three weeks (FIG. 2). In another experiment, (−)-gossypol acetic acid co-crystals were administered at 60 mg/kg, po, daily for three days per week (day 1-3/week) every two weeks (days 1-3, and then days 15-17), either alone or in combination with taxotere at 30 mg/kg, iv, single dose only, once every three weeks (FIG. 3).

The subject of data set [2] is men with docetaxel-refractory castration-resistant prostate cancer. The data set is described as follows: CS-202 Cohort B: AT-101 added to docetaxel/prednisone in docetaxel-refractory CRPC. The method, then:
An open-label non-randomized Phase I-II clinical trial (labeled CS-202) is being carried out on patients with histologically confirmed metastatic prostate cancer. Briefly, patients are divided in into two cohorts: Cohort A-Patients with rising PSA level on hormonal therapy, i.e., hormone-refractory patients, and Cohort B-Patients with PSA or disease progression on docetaxel (taxotere), i.e., docetaxel-refractory patients. All patients were treated with 40-60 mg (−)-gossypol acetic acid co-crystal 40-60 mg BID days 1-3, every 21 days, 75 mg/m2 docetaxel q 21 days and prednisone, daily per label.
Treatment regimen in this study is: oral AT-101 40 mg BID×3 days q 3 weeks, IV taxotere 75 mg/m^2 q 3 weeks, and oral prednisone 5 mg BID daily.
A clinical study of docetaxel and prednisone in combination with AT-101 using a pulse administration schedule in men with docetaxel-refractory castration-resistant prostate cancer (CRPC) is ongoing (see Example 4, cohort B patients). A strict definition of docetaxel refractoriness which requires that the patient have progression as measured by PSA levels, RECIST, or bone scan while receiving docetaxel (D) and prednisone (P) is being used in the study. RECIST criteria are widely-used and well known in the art. The intervention is to continue docetaxel and prednisone treatment and to add AT-101.

In data set [3] the test system is patients with histologically confirmed metastatic prostate cancer. Briefly: CS-202 Phase I data from 9 patients (toxicity). In kind it is in vivo, human. The following applies: 40-60 mg BID days 1-3 every 21 days with docetaxel 75 mg/m2 and prednisone.
For data set [4], the system named is patients with advanced cancer. The data set is described as follows: Pulsatile dose administration of AT-101 b.i.d. times 3 days every other week, clinical efficacy and case summaries. In kind it is in vivo, human. From the text: Following pulsatile dose administration of (−)-gossypol to patients with advanced cancer, clinical efficacy (e.g., patients having stable disease for 60 days or more) was monitored. […] The case summaries are as follows:
Patient 1 is a person diagnosed with non-small cell lung cancer (NSCLC) by bronchial biopsy in March 2005. The patient initially received the Carboplatin/paclitaxel with radiation therapy as adjuvant therapy from April to May 2005. Disease progression was diagnosed in September 2005 and treatment with erlotinib was begun in October 2005. The patient had progressive disease in January 2006. The patient started on treatment with AT-101 40 mg b.i.d. times 3 days every other week in March 2006. When the patient started on treatment with AT-101 they had extensive lymph node disease that remained stable on study drug for approximately 939 days (2.6 years). The patient's baseline signs and symptoms included: anemia, fatigue and productive cough. Their medical history includes: history of smoking, COPD, BPH, hypercholesterolemia, hypophosphatemia, RT induced esophagitis.
Patient 2 is a person diagnosed with a neuroendocrine carcinoma by a CT guided biopsy of an abdominal mass in May 2002. The patient was initially treated with interferon alpha from September 2002 to March 2003 but the disease progressed. Subsequently, the patient was treated with an investigational VEGFR2 targeted agent, SUO11248, from August 2003 to March 2004 until progression. The patient next received interferon plus capecitabine from August 2004 to June 2005 until disease progression in July 2005. Next, the patient was treated with […] doxirubicin from July 2005 to January 2006 until disease progression in February 2006. They started on the AT-101 treatment in February 2006 and received AT-101 30 mg b.i.d. times 3 days every other week. At the start of therapy, disease was present in the liver, abdomen, and pelvis and notable for numerous mesenteric masses. These remained stable on study for 18 cycles (534 days). The patient came off study due to increased weight loss and the investigator decision to send the patient for surgery for tumor debulking. The patient's baseline signs and symptoms included tumor pain, fatigue and weight loss. The patient's medical history included: GERD, HTN, congenital pulmonary cysts, anemia, and diarrhea.

In data set [5] the test system is men with treatment naïve CRPC. The data set is described as follows: Single agent AT-101 administration (20-30 mg daily). Type of data set: in vivo, human. The following applies: single agent AT-101 at 20-30 mg daily. An excerpt: Better compliance with a 3-day dosing regimen, compared to daily for 21 of 28 days, for example, is expected.
The test system of data set [6] is patients with metastatic prostate cancer, hormone-refractory. Briefly: CS-202 Phase I-II, Cohort A (hormone-refractory patients): PSA and tumor response. In kind it is in vivo, human. The following applies: with docetaxel and prednisone. From the text:
See N. Engl. J. Med. 351:1502-1512 (2004) for further details of TAX 327 clinical study.
(“D”=docetaxel; “P”=prednisone).

The subject of data set [7] is all-corners with relapsed SCLC. The following applies: oral versus i.v. topotecan HCl; cited from earlier work.
In another data set the target is Bcl-XL (Homo sapiens, UniProt Q07817). Conditions: U.S. Patent Application No. 2003/0008924; cited from earlier work.
In a further data set the target is Mcl-1 (Homo sapiens, UniProt Q07820). Conditions: U.S. Patent Application No. 2003/0008924; cited from earlier work.
A further data set has as its target Bcl-2 (Homo sapiens, UniProt P10415). Conditions: U.S. Patent Application No. 2003/0008924; cited from earlier work.
[8] abbreviates: 20 patients with measurable disease by RECIST.
[9] abbreviates: AT-101 added to continued docetaxel and prednisone.
The mark [10] stands for this setting: first 11 patients of Cohort B, with docetaxel and prednisone.
Setting [11] is: Patient 1, NSCLC, 40 mg b.i.d. times 3 days every other week.
[12] abbreviates: Patient 2, 30 mg b.i.d. times 3 days every other week.

Each structure is given as a SMILES string. Where a name gives a salt, the structure may show the parent alone.

Chain of Mcl-1 (Q07820 whole entry): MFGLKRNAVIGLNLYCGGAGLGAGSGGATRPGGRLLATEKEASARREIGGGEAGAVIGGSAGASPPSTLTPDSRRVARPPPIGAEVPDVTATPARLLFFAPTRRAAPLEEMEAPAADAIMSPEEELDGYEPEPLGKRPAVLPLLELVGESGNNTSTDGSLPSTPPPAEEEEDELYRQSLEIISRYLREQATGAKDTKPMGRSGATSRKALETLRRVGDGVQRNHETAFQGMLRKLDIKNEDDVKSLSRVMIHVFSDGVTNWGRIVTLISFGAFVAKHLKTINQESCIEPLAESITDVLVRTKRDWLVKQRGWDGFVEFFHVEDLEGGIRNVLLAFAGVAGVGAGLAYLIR
Chain of Bcl-XL (Q07817 whole entry): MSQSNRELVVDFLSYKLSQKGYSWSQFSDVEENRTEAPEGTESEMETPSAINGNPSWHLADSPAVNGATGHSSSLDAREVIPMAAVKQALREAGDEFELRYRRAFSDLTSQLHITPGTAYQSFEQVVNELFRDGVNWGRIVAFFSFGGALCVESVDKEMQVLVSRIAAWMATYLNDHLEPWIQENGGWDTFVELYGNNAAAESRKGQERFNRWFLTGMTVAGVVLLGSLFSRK
Chain of Bcl-2 (P10415 whole entry): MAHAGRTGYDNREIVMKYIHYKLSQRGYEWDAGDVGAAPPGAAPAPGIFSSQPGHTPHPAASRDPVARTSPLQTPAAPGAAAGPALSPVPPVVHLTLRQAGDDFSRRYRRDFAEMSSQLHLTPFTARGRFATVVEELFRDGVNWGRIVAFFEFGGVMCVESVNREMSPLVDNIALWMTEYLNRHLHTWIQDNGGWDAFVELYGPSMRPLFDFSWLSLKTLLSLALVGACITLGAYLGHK

Regarding `Cc1cc2c(C(C)C)c(O)c(O)c(C=O)c2c(O)c1-c1c(C)cc2c(C(C)C)c(O)c(O)c(C=O)c2c1O` [AT-101, (−)-gossypol acetic acid co-crystal], in data set [1], the Tumor volume result was “effectively reduces tumor volume”. In data set [2] (setting [8]), the “Complete response (CR)” value is recorded as “one complete response (CR)” and the “PRs (RECIST)” value came to 4. Also, the “Patients with major tumor shrinkage based on radiographic assessments” value in [2] (20 patients with measurable disease by RECIST criteria at baseline) is recorded as 6/20. In addition, in [2] (setting [9]), the “Patients who have achieved a PSA partial response (PR) (50% or greater reduction)” value is 7/35 and the “Patients with some PSA reduction” value is given as 20/35. The PSA response kinetics result in [2] (added to a taxotere/prednisone regimen, patients of Cohort B) was “abrupt reversal of the PSA response (from rising to falling)”. In addition, the “Reduction in tumor volume” value in data set [2] (another single patient with measurable disease) worked out at 29%. In data set [2] (setting [10]), the “Patients having a 30+% decline in PSA response” value is on record as 4 patients, the “Patients having a 50+% decline in PSA response” value came to 2 patients and the “Patients with the desired PSA response” value is 6 patients. Moreover, the “Peak and AUC concentrations” value in data set [2] (human, in vivo) was “higher peak and AUC concentrations”. In data set [2] (of 35 patients), the “Patients on-study for 4 months or longer” value is recorded as “Eight out of the 35 patients” and the “Patients on-study for 6 months or longer” value was determined as 3 patients. Besides, the “D/P refractory patients who have had a PSA PR” value in [2] (patients meeting the strict definition of refractoriness) is listed as 4/32. The Tolerability result in [2] (pulsatile dose administration) is reported as “well tolerated”. For the same molecule, in [2] (pulsatile dose administration, some patients with CRPC), the D/P chemoresistance result is “overcomes D/P chemoresistance in some patients with CRPC”. Besides, in data set [2] (taxotere-refractory patients (37 eligible; 21 with measurable disease), AT-101 40 mg BID×3 days q 3 weeks added to taxotere/prednisone), the “Responses, time-to-event plot” value is “multiple durable responses”. Further, the RECIST responses entry in data set [2] (taxotere-refractory patients, AT-101 40 mg BID×3 days q 3 weeks added to taxotere/prednisone) is reported as “RECIST partial responses are observed”. Moreover, in data set [3], the Docetaxel hematological toxicity result was “no increase in docetaxel hematological toxicity”, the Dose-limiting toxicities entry is given as “no dose-limiting toxicities” and the Severe gastrointestinal toxicity result is listed as “no severe gastrointestinal toxicity”. Also, in [4] (setting [11]), the On-treatment toxicities entry is “grade 2 peripheral neuropathy” and the “Time disease remained stable on study drug” value is listed as “approximately 939 days”. In data set [4] (setting [12]), the “On treatment grade 1 toxicities” value is “general body aches, nausea, flatulence, headache, fatigue, hypomagnesemia, vomiting, hypokalemia and diarrhea”; the “On treatment grade 2 toxicities” value is listed as “weight loss, nausea, vomiting”. The “Time disease remained stable on study” value in data set [4] (Patient 2, neuroendocrine carcinoma, 30 mg b.i.d. times 3 days every other week, 18 cycles) stood at 534 days. Further, in data set [4] (Patient 2, considered serious, determined to be unrelated to AT-101 treatment), the “On treatment grade 3 toxicity” value is “small bowel obstruction”. Besides, the “Patients with clinical benefit (prolonged progression free period of more than 1 year)” value in data set [4] (among 37 patients, b.i.d. times 3 days every other week) is “two patients had clinical benefit”. Also, in data set [5], the “RECIST SD (stable disease)” value is listed as “no RECIST SD (stable disease)”. Also, the “PSA PRs” value in data set [5] (compared with pulsatile dosing with D/P) is “fewer PSA PRs”. In addition, the “PSA response versus time” value in data set [6] (Cohort A) was “PSA reductions occur early in the treatment and are long lasting”. Besides, in data set [6] (first 20 patients of Cohort A), the PSA response entry is reported as “high rate of PSA response” and the “Patients refractory at the onset of treatment” value is “only one patient out of 20 was refractory”.
With `CC[C@@]1(O)C(=O)OCc2c1cc1n(c2=O)Cc2cc3c(CN(C)C)c(O)ccc3nc2-1` [topotecan HCl, (S)-10-[(dimethylamino)methyl]-4-ethyl-4,9-dihydroxy-1H-pyrano[3′,4′:6,7] indolizino [1,2-b] quinoline-3,14-(4H,12H)-dione monohydrochloride], in data set [7], the “Median progression free survival (PFS)” value is recorded as 13.1 weeks and the ORR was 44%.
Take `Cc1cc2c(C(C)C)c(O)c(O)c(C=O)c2c(O)c1-c1c(C)cc2c(C(C)C)c(O)c(O)c(C=O)c2c1O` [Gossypol, gossypol]: the “Binding to Bcl-XL at the BH3 binding groove” value at Bcl-XL was “shown to bind”. The “Binding to Mcl-1 at the BH3 binding groove” value on Mcl-1 is “shown to bind”. Besides, the “Binding to Bcl-2 at the BH3 binding groove” value at Bcl-2 is recorded as “shown to bind”.
